These are literature values, as cited in publication PMC11643494, “Structure–Activity Relationship Studies in a Series of 2-Aryloxy-N-(pyrimidin-5-yl)acetamide Inhibitors of SLACK Potassium Channels” (Molecules, 2024).

In general, IC50 refers to the concentration at which inhibition is half-maximal. One may read the clearance as a measure of how efficiently the substance is removed, as volume per time.

The structures appear in SMILES notation. Read-outs that look alike come from different tables or passages of the source.

One series has as its system SLACK mutant G288S. Details: method as in PMID 33859800. Conditions: APC; read-out: IC50 versus SLACK mutant G288S; cited from earlier work.
A further series deals with Kcnt1^L/L mice. Details: method as in PMID 33859800. To be noted: cited from earlier work.
The test system of a further series is SLACK mutant F364L. On the set-up: method as in PMID 33859800. Conditions: APC; read-out: IC50 versus SLACK mutant F364L; cited from earlier work.
Details of series [1]: method as in PMID 33859800. To be noted: mice; cited from earlier work.
Another series concerns human WT SLACK. On the set-up: method as in PMID 33859800. Conditions: APC; read-out: IC50 versus human WT SLACK; cited from earlier work.
In series [2] the test system is WT SLACK. Conditions: cited from earlier work.
Series [3] deals with co-cultured cortical neurons and glial cells. On the set-up: method as in PMID 33143429. To be noted: cited from earlier work.
The test system of series [4] is hERG. To be noted: Tl+-flux, cited from earlier work.
For series [5], the system named is A934T SLACK. Conditions: cited from earlier work.
Series [6] deals with G288S SLACK. On the set-up: method as in PMID 38893312. To be noted: whole-cell APC; read-out: IC50 versus G288S SLACK; cited from earlier work.
On the set-up of series [7]: method as in PMID 38782404. To be noted: human liver microsomes; cited from earlier work. In general terms: Liver microsomes are a subcellular fraction often used to study metabolism.
In series [8] the test system is G288S SLACK. On the set-up: method as in PMID 38782404. To be noted: read-out: IC50 versus G288S SLACK; cited from earlier work.
Series [9] deals with A934T SLACK. On the set-up: method as in PMID 38782404. To be noted: read-out: IC50 versus A934T SLACK; cited from earlier work.
A further series has as its system WT SLICK. On the set-up: method as in PMID 38782404. Conditions: read-out: IC50 versus WT SLICK; cited from earlier work.
The test system of the next series is KV7.2. On the set-up: method as in PMID 38782404. Conditions: cited from earlier work.
On the set-up of series [10]: method as in PMID 38782404. To be noted: cited from earlier work.
Series [11] relates to WT SLACK. Details: method as in PMID 38782404. To be noted: patch clamp; read-out: IC50 versus WT SLACK; cited from earlier work.
The subject of series [12] is hERG. Details: method as in PMID 38782404. Conditions: cited from earlier work.
Setting [13] is: whole-cell patch clamp electrophysiology, read-out: IC50 versus WT SLACK.

For the molecule `C[C@H](NC(=O)c1cc(C(F)(F)F)nn1C)c1nc(-c2ccnc(C(F)(F)F)c2)no1` [Compound 4], the 50% inhibitory concentration (IC50) was 220 nM in the series on SLACK mutant G288S, 1800 nM in the series with SLACK mutant F364L and […] in the series with human WT SLACK. For the same molecule, the anticonvulsant effects result in the series with Kcnt1^L/L mice is listed as “anticonvulsant effects were observed”. For the same molecule, the bioavailability entry in series [1] is given as “complete bioavailability”. Further, in series [1], the clearance was 2.0 mL/min/kg.

As for `COc1ccc(Cl)cc1NC(=O)CN1CCN(S(=O)(=O)N2CCC(C)CC2)CC1` [Compound 6], the results for the IC50 with WT SLACK [2] (setting [13]) and with hERG [4] were 1700 nM and above 10 µM, respectively. Besides, the “frequency of calcium (Ca2+) oscillations, result in words” value in series [3] is reported as “inhibiting the frequency of calcium (Ca^2+) oscillations”.

Consider `Cc1ccc2cccc(S(=O)(=O)N3CC(c4nc(-c5ccc(F)cc5)no4)C3)c2n1` [Compound 7], for which, in the series with WT SLACK [2] (whole-cell APC, read-out: APC IC50 versus WT SLACK), the IC50 is 320 nM. The “hERG activity, result in words” value in the series with hERG [4] (10 µM) was “inactive”. Further, in the series with A934T SLACK [5], the “A934T SLACK inhibition, result in words” value was “potent inhibitor”.

Turning to `CCCCN(Cc1ccc(F)cc1)c1nc2c(c(=O)n(Cc3cccc(OC)c3)c(=O)n2C)n1C` [Compound 8], the IC50 in the series with WT SLACK [2] (setting [13]) was 700 nM; with G288S SLACK [6], 710 nM; in the series with A934T SLACK [5] (whole-cell APC, read-out: IC50 versus A934T SLACK), 590 nM.

Consider `O=S(=O)(Nc1ccc2c(c1)CCN2Cc1ccc(C(F)(F)F)cc1C(F)(F)F)C1CCCCC1` [Compound 9], for which the “metabolic stability (clearance), result in words” value in [7] is on record as “low clearance compound”. Also, the IC50 in the series on G288S SLACK [8] is 300 nM; in the series with A934T SLACK [9], 280 nM; in the series on WT SLICK, 1300 nM; in the series with WT SLACK [11], 200 nM. Moreover, in the series on KV7.2, the “activity on KV7.2 channels, result in words” value is on record as “no activity”. Also, in [10], the “plasma protein binding, result in words” value is “highly bound to plasma proteins”. Also, the “activity on hERG channels, result in words” value in the series on hERG [12] is on record as “no activity”.
